The subject of data set [1] is Rattus norvegicus. In words: Anti-inflammatory activity in Wistar rat assessed as inhibition of kaolin paw edema at 50 mg/kg, po dosed 1 hr before kaolin injection and measured 4 hrs after kaolin injection relative to untreated control. It is filed as functional.
In data set [2] the test system is Rattus norvegicus. The data set is described as follows: Anti-ulcer activity in Wistar rat model of ethanol-induced gastric ulcer model assessed as ulcer area at 50 mg/kg, po dosed 1 hr before ethanol injection relative to untreated control. Type of data set: functional.
Data set [3] concerns the target T1, Acetylcholinesterase (Homo sapiens, UniProt P22303). In words: Inhibition of AChE (unknown origin) at 0.5 mM using […] as substrate by Ellman method relative to untreated control. (In Ellman's method for cholinesterases, released thiocholine reacts with DTNB.)
In data set [4] the target is T1, Acetylcholinesterase. The data set is described as follows: Inhibition of AChE (unknown origin) using […] as substrate by Ellman method.
The target of data set [5] is T2, Cholinesterase (Homo sapiens, UniProt P06276). The data set is described as follows: Inhibition of BuChE (unknown origin) at 0.5 mM using butyrylthiocholine bromide as substrate by Ellman method relative to untreated control.
Data set [6] addresses T2, Cholinesterase. The data set is described as follows: Inhibition of BuChE (unknown origin) using butyrylthiocholine bromide as substrate by Ellman method.
Data set [7] has as its target T3, Polyunsaturated fatty acid 5-lipoxygenase (Homo sapiens) (UniProt P09917).
T3 sequence (whole entry): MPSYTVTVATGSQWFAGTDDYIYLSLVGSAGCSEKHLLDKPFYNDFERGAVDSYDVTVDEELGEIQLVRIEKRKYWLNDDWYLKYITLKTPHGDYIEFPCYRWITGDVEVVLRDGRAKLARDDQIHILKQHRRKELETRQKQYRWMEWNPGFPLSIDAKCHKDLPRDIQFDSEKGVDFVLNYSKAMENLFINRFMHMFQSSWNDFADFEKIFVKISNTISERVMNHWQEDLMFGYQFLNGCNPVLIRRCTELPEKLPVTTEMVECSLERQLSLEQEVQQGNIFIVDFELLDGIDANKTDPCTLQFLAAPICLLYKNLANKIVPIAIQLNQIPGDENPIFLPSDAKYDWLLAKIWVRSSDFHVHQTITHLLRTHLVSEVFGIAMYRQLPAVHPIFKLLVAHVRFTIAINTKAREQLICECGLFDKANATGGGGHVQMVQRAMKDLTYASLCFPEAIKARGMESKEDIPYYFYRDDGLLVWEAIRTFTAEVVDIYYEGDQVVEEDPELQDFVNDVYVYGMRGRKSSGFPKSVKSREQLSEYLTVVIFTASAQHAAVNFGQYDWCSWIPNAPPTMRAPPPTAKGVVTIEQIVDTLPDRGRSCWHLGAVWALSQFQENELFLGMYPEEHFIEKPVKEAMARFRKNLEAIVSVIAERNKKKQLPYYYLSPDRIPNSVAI
The data set is described as follows: Inhibition of 5-LOX (unknown origin) relative to untreated control. The note with it: concentration not given here.

Data set [8] is described as follows: Toxicity in orally dosed Wistar rat monitored every hour for 12 hrs and then every day for 14 days. The following applies: in vivo, po. Type of data set: organism-based.
The nature of data set [9]: Antioxidant activity assessed as DPPH free radical scavenging activity at 0.5 mM relative to untreated control. It is filed as functional.
Data set [10] can be described thus: Antioxidant activity assessed as DPPH free radical scavenging activity at 0.25 mM relative to untreated control. It is filed as functional.

The record followed here is ChEMBL document CHEMBL4390636, “Synthesis, spectroscopic characterization, molecular docking and theoretical studies (DFT) of N-(4-aminophenylsulfonyl)-2-(4-isobutylphenyl) propanamide having potential enzyme inhibition applications” (Bioorg Med Chem, 2019).

What is called inhibition in vivo is how much of the control response was suppressed. The inhibition is how much of the control response was suppressed. A word on the LD50: it is the dose at which mortality reaches 50%. Low readings indicate greater toxicity, high ones lower toxicity.

T1 sequence (P22303 whole entry): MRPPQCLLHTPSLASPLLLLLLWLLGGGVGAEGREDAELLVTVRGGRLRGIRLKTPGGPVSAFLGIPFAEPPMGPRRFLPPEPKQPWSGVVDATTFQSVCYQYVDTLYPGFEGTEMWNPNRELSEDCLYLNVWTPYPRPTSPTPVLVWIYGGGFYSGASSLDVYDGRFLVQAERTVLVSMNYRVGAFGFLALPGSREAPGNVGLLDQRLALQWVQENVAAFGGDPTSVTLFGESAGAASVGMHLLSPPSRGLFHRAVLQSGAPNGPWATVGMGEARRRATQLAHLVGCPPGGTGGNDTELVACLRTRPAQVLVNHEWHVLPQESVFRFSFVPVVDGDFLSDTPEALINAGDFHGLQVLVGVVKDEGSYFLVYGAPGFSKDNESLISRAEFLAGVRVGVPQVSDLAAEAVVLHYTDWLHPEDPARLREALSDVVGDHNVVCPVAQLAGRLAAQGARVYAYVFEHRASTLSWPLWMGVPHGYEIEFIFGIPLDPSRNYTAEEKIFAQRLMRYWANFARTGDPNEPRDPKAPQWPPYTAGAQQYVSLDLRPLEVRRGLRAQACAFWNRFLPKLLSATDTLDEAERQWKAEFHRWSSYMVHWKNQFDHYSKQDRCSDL
T2 sequence (P06276 whole entry): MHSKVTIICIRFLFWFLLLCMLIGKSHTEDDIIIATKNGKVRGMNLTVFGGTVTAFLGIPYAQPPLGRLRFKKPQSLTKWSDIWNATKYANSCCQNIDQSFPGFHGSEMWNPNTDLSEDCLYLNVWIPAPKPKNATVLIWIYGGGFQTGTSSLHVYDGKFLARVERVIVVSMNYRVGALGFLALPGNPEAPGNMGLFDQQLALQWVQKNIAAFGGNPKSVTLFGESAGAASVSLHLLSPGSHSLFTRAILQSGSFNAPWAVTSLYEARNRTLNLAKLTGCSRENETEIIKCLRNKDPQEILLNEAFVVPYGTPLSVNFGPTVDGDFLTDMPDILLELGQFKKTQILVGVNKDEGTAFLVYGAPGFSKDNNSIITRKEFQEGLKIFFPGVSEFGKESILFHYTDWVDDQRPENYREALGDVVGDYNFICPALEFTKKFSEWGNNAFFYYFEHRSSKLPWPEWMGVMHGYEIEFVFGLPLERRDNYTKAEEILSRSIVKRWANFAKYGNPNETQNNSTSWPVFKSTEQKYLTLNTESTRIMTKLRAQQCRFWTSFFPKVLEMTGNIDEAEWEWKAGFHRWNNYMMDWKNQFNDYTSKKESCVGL

As for `CC(C)Cc1ccc(C(C)C(=O)NS(=O)(=O)c2ccc(N)cc2)cc1` (stereo not given), the inhibition in vivo at 50 mg/kg in [1] stood at 75%. Also, in [2], the Activity stood at 8%. Besides, the inhibition was 47.2% in [3], 65.9% in data set [5] and 48.4% in data set [7]. Moreover, the IC50 in [4] is less than 600 µmol; in data set [6], 214.41 µmol. For the same compound, the LD50 at 14 days in data set [8] is 4050 mg/kg.

Turning to `CC(C)Cc1ccc(C(C)C(=O)O)cc1` (stereo not given) [IBUPROFEN], the inhibition in vivo at 50 mg/kg in data set [1] is 45%. Moreover, the Activity in [2] was 35%. Besides, the inhibition in data set [3] was 61.2%; in [5], 35.5%; in [9], 11.3%; in [7] it was 42.5%. The IC50 in [4] is 235.11 µmol; in data set [6], less than 600 µmol; in data set [10] it was less than 500 µmol. The compound further gave a 50% lethal dose (LD50) at 14 days in data set [8] of 630 mg/kg.

As to `O=c1c(O)c(-c2ccc(O)c(O)c2)oc2cc(O)cc(O)c12` [QUERCETIN], in data set [9], the inhibition worked out at 93.2%. Moreover, the IC50 in data set [10] worked out at 16.96 µmol.

Consider `Nc1ccc(S(N)(=O)=O)cc1` [SULFANILAMIDE], for which, in data set [1], the inhibition in vivo at 50 mg/kg is 10%. Also, in [2], the Activity stood at 10%. For the same compound, the inhibition was found to be 10.2% in data set [3] and 5.19% in data set [5]. In data set [6], this compound came in with an IC50 of 138.79 µmol.
